Several values for one entry are separate records, joined by “and”; a condition that tells them apart may be missing. Identical values can stand only once.
How the values were obtained:
[1] = Radiochemical stability by HPLC; format: physicochemical; settings: room temperature, protected from light, at least 24 hours
Procedure: The radiochemical stability of the radioactive drug substance was determined by HPLC after storing at room temperature protected from light for up to 24 hours. Samples of the ^99mTc-EC20 solution (20 μL) were analyzed using an HPLC system consisting of a Waters 600E Multisolvent Delivery System and 490 UV detector, a Bioscan EC-3200 radiodetector, Laura v1.5 radiochromatogram software, and a Waters Nova-Pak C18 (3.9×150 mm) column. Injected samples were eluted isocratically using an aqueous mobile phase containing 20% methanol and 0.1% trifluoroacetic acid at a flow rate of 1 mL/min. The HPLC analysis was monitored with both the UV detector (280 nm) and the gamma radiodetector.

[2] = test system: FR-positive M109 and FR-negative 4T1 tumors; test: Tissue distribution, M109 and 4T1 tumor models (Example 15); format: in vivo, Balb/c mice; settings: four hours post i.v. injection
Procedure: The protocols used in this example are similar to those described in Example 11.
Syngeneic, FR-positive M109 tumor cells (2×10^6 Po per animal) or FR-negative 4T1 cells (5×10^5 Po per animal) were inoculated subcutaneously in 100 μl of folate-free RPMI-1640 containing 1% syngeneic mouse serum.
Sixteen days after tumor cell inoculation, the animals were injected intravenously with 500 or 1800 nmoles/kg of EC20 for M109 tumor-bearing animals and 500 nmoles/kg of EC20 for 4T1 tumor-bearing animals (3 mice per dose group). All injections were in 100 μl volumes. […] Selected tissues (heart, lungs, liver, spleen, kidney, intestines, stomach, muscle, and tumor) were removed, weighed, and counted in an automatic gamma counter to determine ^99mTc distribution. Uptake of the radiopharmaceutical in terms of percentage injected dose of wet weight tissue (% ID/g) was calculated by reference to standards prepared from dilutions of the injected preparation.

FR-positive KB cells = test: Time-dependent cell uptake; format: cell-based, human; design: time to half-maximal saturation point: dose or concentration left out as unconfirmed
Procedure: KB cells were seeded in 12-well Falcon plates and allowed to form sub-confluent monolayers overnight. Following one rinse with 1 mL of fresh FFRPMI/HIFCS, each well received 1 mL of FFRPMI/HIFCS containing 10 nM ^99mTc-EC20. Cells were incubated for predetermined times at 37° C. and then rinsed four times with 1 mL of ice-cold PBS, pH 7.4. The cell monolayers were dissolved in 0.5 mL of PBS, pH 7.4 containing 1% sodium dodecyl sulfate for 15 min at room temperature and then counted for radioactivity using a Packard gamma counter. The protein in each sample was quantitated using a BioRad DC Protein Assay kit, and cellular protein values were converted to cell number using the conversion factor of 2.23×10^−7 mg protein per cell. Final tabulated values were expressed in terms of molecules of EC20 per cell.
The kinetics of ^99mTc-EC20 uptake into FR-positive KB cells was quantitatively measured using this protocol.

[3] = Urinary excretion and metabolism (HPLC speciation of urine); format: in vivo, Balb/c mice
Procedure: The urinary HPLC speciation profile of ^99mTc-EC20 was obtained using Balb/c mice. Mice (˜20 g each) were injected with 1 mCi (6.7 nmol) of ^99mTc-EC20 via a lateral tail vein. Following a 1, 4, or 6 hour time period, groups of two mice were euthanized by CO2 asphyxiation and urine was collected. After filtration through a GV13 Millex filter, the radiochemical speciation was assessed using an HPLC system equipped with a Nova-Pak C18 3.9×150 mm column and a radiochemical detector. The system was isocratically eluted with 20% methanol containing 0.1% TFA at a flow rate of 1 mL/minute.

Q: For `[NH-][C@@H](CNC(=O)CC[C@@H](NC(=O)c1ccc(NCc2cnc3nc(N)[nH]c(=O)c3n2)cc1)C(=O)O)C(=O)[N-][C@@H](CC(=O)O)C(=O)[N-][C@@H](C[S-])C(=O)O.[O]=[Tc+4]` [^99mTc-EC20], which “radiochemical purity on storage” value [1] is on record?
A: Its value is “greater than 90%”.

Q: What about the “uptake in FR-negative 4T1 tumors lower than in FR-positive M109 tumors” value [2] of the same compound?
A: The value was 7.6 fold.

Q: What about the “uptake in normal tissues, except kidney” value [2] of the same compound?
A: The value was “low”.

Q: And the “time to half-maximal cell association” value (FR-positive KB cells; 10 nM, 37° C.)?
A: Its value is 9 min.

Q: And the “molecules of EC20 cell-associated at steady state” value (FR-positive KB cells; 10 nM, 37° C., KB cells)?
A: The value was “approximately 3.2 million”.

Q: And the “time to steady-state uptake” value (FR-positive KB cells; 10 nM, 37° C., KB cells)?
A: Its value is “within two hours”.

Q: What about the “time to half-maximal saturation point” value (FR-positive KB cells; 10-fold higher concentration) of the same compound?
A: Its value is 37 s.

Q: What about the “form excreted into the urine” value ([3]; Balb/c mice, i.v.) of the same compound?
A: Its value is “predominately excreted into the urine in an unmodified form”.

Q: What about the “proportion of parent drug among radioactive species recovered in urine” value ([3]; throughout four hours post-injection) of the same compound?
A: Its value is “approximately 90%”.

Q: And the “Area Percent, Sum C and D (intact 99mTc-EC20)” value ([3]; urine samples, 1 hr, two mice)?
A: The value was 89.2 Area Percent and 91.1 Area Percent.

Q: What about the “Area Percent, peak A (pertechnetate)” value ([3]; urine samples, 1 hr, two mice) of the same compound?
A: The value was 8.3 Area Percent and 6.3 Area Percent.

Q: And the “Area Percent, peak B (unknown)” value ([3]; urine samples, 1 hr, two mice)?
A: Its value is 2.5 Area Percent and 2.6 Area Percent.

Q: What about the “Area Percent, peak C (isomer 1)” value ([3]; urine samples, 1 hr, two mice) of the same compound?
A: Its value is 20.4 Area Percent and 18.1 Area Percent.

Q: And the “Area Percent, peak D (isomer 2)” value ([3]; urine samples, 1 hr, two mice)?
A: Its value is 68.8 Area Percent and 73 Area Percent.

Q: What about the “Area Percent, Sum C and D (intact 99mTc-EC20)” value ([3]; urine samples, 4 hr, two mice) of the same compound?
A: The value was 85.2 Area Percent and 89.8 Area Percent.

Q: What about the “Area Percent, peak A (pertechnetate)” value ([3]; urine samples, 4 hr, two mice) of the same compound?
A: The value was 9.4 Area Percent and 10.2 Area Percent.

Q: And the “Area Percent, peak C (isomer 1)” value ([3]; urine samples, 4 hr, two mice)?
A: Its value is 7.3 Area Percent and 11.1 Area Percent.

Q: And the “Area Percent, peak D (isomer 2)” value ([3]; urine samples, 4 hr, two mice)?
A: The value was 77.9 Area Percent and 78.7 Area Percent.

— US7862798B2, “Vitamin-targeted imaging agents” (Endocyte, Inc., priority 2002, dated 2011)
